Consider 9 molecules from US20210238197A1, “NOVEL OXOQUINOLIZINE COMPOUNDS FOR THE TREATMENT AND PROPHYLAXIS OF BACTERIAL INFECTION” (Hoffmann-La Roche Inc., priority 2018, published 2021).

Each structure is given as a SMILES string. Converted amounts (≈) assume the structure as drawn. Read-outs that look alike come from different tables or passages of the source.

Data set [1] relates to S. aureus (ATCC29213). The data set can be described thus: 50% growth inhibitory concentration (IC50) determination assay, S. aureus. The note with it: Staphylococcus aureus, ATCC29213; Iso-Sensitest broth, growth by OD 600 nm over 16 h; <0.098 = detection limit. It counts as cell-based. As to the method:
(§1) The in vitro antimicrobial activity of the compounds against S. aureus (ATCC29213), K. pneumoniae (ATCC10031), and A. baumannii (ATCC17978), was determined according to the following procedure: The assay used a 10-points Iso-Sensitest broth medium to measure quantitatively the in vitro activity of the compounds against S. aureus ATCC29213, K. pneumoniae ATCC 10031, and A. baumannii ATCC17978. Stock compounds in DMSO were serially two-fold diluted (range from 50 to 0.097 μM final concentration) in 384 wells microtiter plates and inoculated with 49 μL the bacterial suspension in Iso-Sensitest broth medium to have a final cell concentration of ˜5×10^5 CFU/mL in a final volume/well of 50 μL/well. Microtiter plates were incubated at 35±2° C. Bacterial cell growth was determined with the measurement of optical density at λ=600 nm each 20 minutes over a time course of 16 h.

In data set [2] the test system is K. pneumoniae (ATCC10031). The data set can be described thus: 50% growth inhibitory concentration (IC50) determination assay, K. pneumoniae. It counts as cell-based. Conditions: Klebsiella pneumoniae, ATCC10031; Iso-Sensitest broth, growth by OD 600 nm over 16 h; <0.098 = detection limit. As to the method:
as §1

Data set [3] relates to A. baumannii (ATCC17978). The data set can be described thus: 50% growth inhibitory concentration (IC50) determination assay, A. baumannii. The data set is classed as cell-based. The note with it: Acinetobacter baumannii, ATCC17978; Iso-Sensitest broth, growth by OD 600 nm over 16 h; <0.098 = detection limit. As to the method: as §1
Data set [4] relates to multiple species and strains. The data set can be described thus: microbe, parasite or virus in culture. Set-up: MIC S9 / MIC S7 / MIC S11 / MIC S8 / MIC S10: unit not given beside the values. Conditions: for MIC S9: E. coli ATCC 35218. As to the method: The MIC of antibacterial compounds against multiple species and strains was determined using the broth microdilution method according to M07-A10 Clinical and Laboratory Standards Institute (CLSI) guidelines (CLSI (2015) Methods for dilution antimicrobial susceptibility tests for bacteria that grow aerobically; Approved Standard, Tenth Edition. CLSI Document M7-A10 (ISBN 1-56238-987-4). Wayne, Pa.: Clinical and Laboratory Standards Institute, 19087, USA.). In short, bacterial strain preparation was performed on D1 and D2. […] 5-10 well-isolated colonies of similar morphology were selected and re-streaked onto fresh agar plates using sterile loops and incubated for 20-24 hr at 35±2° C. Bacterial strains were subcultured two times to ensure fresh inoculums for MIC screening. […] Alternatively, 1-2 colonies were transferred into 500 μL of saline and OD600 was adjusted to ˜0.1 using an OD meter. Bacterial inoculum was diluted by 1:280 for Gram-positive strains and 1:400 for Gram-negative strains into corresponding medium broth (CAMHB, CAMHB+3% lysed horse blood, HTM) (e.g. 35.6 μL of inoculum into 10 mL of CAMHB or 25 μL of inoculum into 10 mL of CAMHB). For compound plate, the compound stock solutions were prepared in 100% DMSO on the day of MIC screening and used immediately. Compound stock concentration=[(highest testing concentration)×100 μL/2 μL] (e.g. if the required highest testing concentration is 64 μg/mL in assay plates, stock concentration=64 μg/mL×100 μL/2 μL=3.2 mg/mL). […] 1 μL of each well was transferred in a new MTP, which served as the test plate by subsequent inoculation. The bacterial suspension prepared above is dispensed at 98 μL/well within 15 minutes after preparation. Negative controls (lack of bacterial cells) and growth control wells (lack of compound) were included in all plates. MTPs were incubated for 18-24 hours at 35±2° C. in ambient air. The MIC was recorded and CFUs were calculated on Day 4. The assay plate was placed on the top of MIC reader, and the magnification mirror was adjusted to read each wells, recording growth status as raw data. Photo images of each assay plates were recorded using Q Count 530 (Spiral Biotech). The MIC value of each compound, expressed as μg/mL, was determined as the lowest concentration required for complete growth inhibition (no visible growth).

The mark [5] stands for this setting: Acinetobacter baumannii, ATCC19606, read-out: MIC S1, A. baumannii ATCC 19606.
The mark [6] stands for this setting: Acinetobacter baumannii, ATCC51432, read-out: MIC S2, A. baumannii ATCC 51432.
Setting [7] is: Acinetobacter baumannii, ATCCBAA747, read-out: MIC S3, A. baumannii ATCC BAA-747.
The mark [8] stands for this setting: Escherichia coli, ATCC25922, read-out: MIC S11, E. coli ATCC 25922.
Setting [9] is: Escherichia coli, ATCCBAA2340, read-out: MIC S10, E. coli ATCC BAA-2340.
The mark [10] stands for this setting: Klebsiella pneumoniae, ATCC10031, read-out: MIC S4, K. pneumoniae ATCC 10031.
[11] abbreviates: Klebsiella pneumoniae, ATCC700603, read-out: MIC S5, K. pneumoniae ATCC 700603.
The mark [12] stands for this setting: Klebsiella pneumoniae, ATCCBAA2146, read-out: MIC S6, K. pneumoniae ATCC BAA-2146.
Setting [13] is: Pseudomonas aeruginosa, ATCC27853, read-out: MIC S7, P. aeruginosa ATCC 27853.
Where [14] appears, read: Pseudomonas aeruginosa, ATCCBAA2113, read-out: MIC S8, P. aeruginosa ATCC BAA-2113.

Regarding `CNc1cc(F)c(F)c2c1[nH]c1ncc(-c3ccc4c(C)cc(C(=O)O)c(=O)n4c3)c(N3CC[C@H]4CN(C)C[C@H]43)c12` (relative stereo) [Example 2.04, 7-[4-[cis-5-methyl-2,3,3a,4,6,6a-hexahydropyrrolo[2,3-c]pyrrol-1-yl]-5,6-difluoro-8-(methylamino)-9H-pyrido[2,3-b]indol-3-yl]-1-methyl-4-oxo-quinolizine-3-carboxylic acid], the IC50 in data set [1], in data set [2] and in data set [3] was less than 98 nM in each case. In addition, the MIC in data set [4] (setting [5]) is 0.461 µg/mL (≈ 0.825 µM); in data set [4] (setting [6]), 0.614 µg/mL (≈ 1.1 µM); in data set [4] (setting [7]), 0.922 µg/mL (≈ 1.65 µM); in data set [4] (setting [8]) it was 0.173 µg/mL (≈ 0.31 µM); in data set [4] (setting [9]), 0.922 µg/mL (≈ 1.65 µM); in data set [4] (setting [10]), 0.077 µg/mL (≈ 0.138 µM). Moreover, the MIC in data set [4] (setting [11]) amounted to 4.92 µg/mL (≈ 8.8 µM); in data set [4] (setting [12]), 4.92 µg/mL (≈ 8.8 µM); in data set [4] (setting [13]), 2.46 µg/mL (≈ 4.4 µM); in data set [4] (setting [14]) it was 3.69 µg/mL (≈ 6.6 µM). Also, the “MIC S9” value in data set [4] amounted to 0.614.

As to `CNc1cc(F)c(F)c2c1[nH]c1ncc(-c3ccc4c(C5CC5)cc(C(=O)O)c(=O)n4c3)c(N3CC[C@H]4CN(C)C[C@H]43)c12` (relative stereo) [Example 2.05, 7-[4-[cis-5-methyl-2,3,3a,4,6,6a-hexahydropyrrolo[2,3-c]pyrrol-1-yl]-5,6-difluoro-8-(methylamino)-9H-pyrido[2,3-b]indol-3-yl]-1-cyclopropyl-4-oxo-quinolizine-3-carboxylic acid], the IC50 in data set [1], in data set [2] and in data set [3] was less than 98 nM in each case.

For the molecule `CNc1cc(F)c(F)c2c1[nH]c1ncc(-c3ccc4ccc(C(=O)O)c(=O)n4c3)c(N3CC4C(N(C)C)CO[C@@H]4C3)c12` (stereo partly drawn) [Example 1.06, 7-[4-[cis-3-(dimethylamino)-2,3,3a,4,6,6a-hexahydrofuro[2,3-c]pyrrol-5-yl]-5,6-difluoro-8-(methylamino)-9H-pyrido[2,3-b]indol-3-yl]-4-oxo-quinolizine-3-carboxylic acid], the IC50 was 137 nM in data set [1], less than 98 nM in data set [2] and less than 98 nM in data set [3].

Take `CNc1cc(F)c(F)c2c1[nH]c1ncc(-c3ccc4ccc(C(=O)O)c(=O)n4c3)c(N3CC4[C@H](CC[C@@H]4N(C)C)C3)c12` (stereo partly drawn) [Example 1.09, 7-[4-[cis-(4S)-4-(dimethylamino)-3,3a,4,5,6,6a-hexahydro-1H-cyclopenta[c]pyrrol-2-yl]-5,6-difluoro-8-(methylamino)-9H-pyrido[2,3-b]indol-3-yl]-4-oxo-quinolizine-3-carboxylic acid]: the half-inhibitory concentration (IC50) in data set [1], in data set [2] and in data set [3] was less than 98 nM in each case.

As to `CNc1cc(F)c(F)c2c1[nH]c1ncc(-c3ccc4ccc(C(=O)O)c(=O)n4c3)c(N3C[C@@H]4[C@H](C3)[C@H]4N(C)C)c12` [Example 1.13, 7-(4-((1R,5S,6S)-6-(dimethylamino)-3-azabicyclo[3.1.0]hexan-3-yl)-5,6-difluoro-8-(methylamino)-9H-pyrido[2,3-b]indol-3-yl)-4-oxo-4H-quinolizine-3-carboxylic acid], the IC50 in data set [1], in data set [2] and in data set [3] was less than 98 nM throughout.

In the case of `CNc1cc(F)c(C#N)c2c1[nH]c1ncc(-c3ccc4ccc(C(=O)O)c(=O)n4c3)c(N(C)C)c12` [Example 1.18, 7-[5-cyano-4-(dimethylamino)-6-fluoro-8-(methylamino)-9H-pyrido[2,3-b]indol-3-yl]-4-oxo-quinolizine-3-carboxylic acid], the MIC in data set [4] (setting [5]) came out at 0.092 µg/mL (≈ 0.196 µM); in data set [4] (setting [6]), 0.367 µg/mL (≈ 0.78 µM); in data set [4] (setting [7]), 0.184 µg/mL (≈ 0.391 µM); in data set [4] (setting [8]), 0.551 µg/mL (≈ 1.17 µM); in data set [4] (setting [9]), 0.046 µg/mL (≈ 0.0978 µM); in data set [4] (setting [10]), 0.046 µg/mL (≈ 0.0978 µM). Further, the MIC in data set [4] (setting [11]) was determined as 0.092 µg/mL (≈ 0.196 µM); in data set [4] (setting [12]), 0.735 µg/mL (≈ 1.56 µM); in data set [4] (setting [13]), 0.367 µg/mL (≈ 0.78 µM); in data set [4] (setting [14]) it was 0.184 µg/mL (≈ 0.391 µM). For the same molecule, the “MIC S9” value in data set [4] stood at 0.046.

Regarding `CNc1cc(F)c(F)c2c1[nH]c1ncc(-c3cc(C)c4ccc(C(=O)O)c(=O)n4c3)c(N(C)C)c12` [Example 1.20, 7-[4-(dimethylamino)-5,6-difluoro-8-(methylamino)-9H-pyrido[2,3-b]indol-3-yl]-9-methyl-4-oxo-quinolizine-3-carboxylic acid], the MIC turned out to be 0.187 µg/mL (≈ 0.392 µM) in data set [4] (setting [5]); 1.49 µg/mL (≈ 3.12 µM) in data set [4] (setting [6]); 0.746 µg/mL (≈ 1.56 µM) in data set [4] (setting [7]); 0.42 µg/mL (≈ 0.88 µM) in data set [4] (setting [8]); 0.559 µg/mL (≈ 1.17 µM) in data set [4] (setting [9]); 0.187 µg/mL (≈ 0.392 µM) in data set [4] (setting [10]). The MIC in data set [4] (setting [11]) stood at 1.49 µg/mL (≈ 3.12 µM); in data set [4] (setting [12]) it was 2.98 µg/mL (≈ 6.25 µM); in data set [4] (setting [13]), 2.98 µg/mL (≈ 6.25 µM); in data set [4] (setting [14]) it was 2.24 µg/mL (≈ 4.69 µM). In data set [4], the “MIC S9” value is 0.559.

With `CNc1cc(F)c(F)c2c1[nH]c1ncc(-c3ccc4ccc(C(=O)O)c(=O)n4c3)c(N3CCC(C4(N)CC4)C3)c12` (centres unmarked) [Example 1.21, 7-[4-[3-(1-aminocyclopropyl)pyrrolidin-1-yl]-5,6-difluoro-8-(methylamino)-9H-pyrido[2,3-b]indol-3-yl]-4-oxo-quinolizine-3-carboxylic acid], the MIC was 0.603 µg/mL (≈ 1.11 µM) in data set [4] (setting [5]); 1.21 µg/mL (≈ 2.22 µM) in data set [4] (setting [6]); 1.21 µg/mL (≈ 2.22 µM) in data set [4] (setting [7]); 0.34 µg/mL (≈ 0.624 µM) in data set [4] (setting [8]); 0.302 µg/mL (≈ 0.555 µM) in data set [4] (setting [9]); 0.038 µg/mL (≈ 0.0698 µM) in data set [4] (setting [10]). Moreover, the MIC in data set [4] (setting [11]) turned out to be 4.83 µg/mL (≈ 8.87 µM); in data set [4] (setting [12]), 4.83 µg/mL (≈ 8.87 µM); in data set [4] (setting [13]) it was 1.21 µg/mL (≈ 2.22 µM); in data set [4] (setting [14]) it was 2.41 µg/mL (≈ 4.43 µM). The “MIC S9” value in data set [4] is reported as 0.603.

Turning to `CNc1cc(F)c(F)c2c1[nH]c1ncc(-c3ccc4ccc(C(=O)O)c(=O)n4c3)c(N3C[C@@H]4CCN(C)[C@@H]4C3)c12` [Example 3.03B, 7-[4-[(3aS,6aS)-1-methyl-2,3,3a,4,6,6a-hexahydropyrrolo[3,4-b]pyrrol-5-yl]-5,6-difluoro-8-(methylamino)-9H-pyrido[2,3-b]indol-3-yl]-4-oxo-quinolizine-3-carboxylic acid], the concentration for half-maximal inhibition (IC50) in data set [1], in data set [2] and in data set [3] was less than 98 nM in each case.

A word on the IC50: it is the midpoint of a concentration-inhibition curve.
